# Measured values from patent US20110124589A1, “INHALED FOSFOMYCIN/TOBRAMYCIN FOR THE TREATMENT OF CHRONIC OBSTRUCTIVE PULMONARY DISEASE” (Gilead Sciences, Inc., priority 2009, published 2011).
# Like-named read-outs stand apart in the source and are kept apart here.
# What was measured:
# [1] = system: S. aureus; details: 16 isolates; agar dilution; cited from earlier work
# [2] = system: P. aeruginosa; assay: MIC, agar-plate dilution with 2% porcine gastric mucin (Method B); format: cell-based; details: Pseudomonas aeruginosa; 100 P. aeruginosa strains from cystic fibrosis lung sputum; 2% mucin
# Experimental: Bacterial strains were streaked onto […] […] Louis, Mo.). […] Louis, Mo.). […] Methodologies were identical to that described in Method A above, with the exception that 2% (weight/volume) porcine gastric mucin (Sigma Chemical Co., St. Louis, Mo.) was added to the MHA prior to autoclaving.
# [3] = system: H. influenzae; assay: MIC of recent clinical isolates, agar dilution (CMI study); format: cell-based; details: Haemophilus influenzae
# [4] = system: S. pneumoniae; assay: as above; format: cell-based
# [5] = system: M. catarrhalis; assay: as above; format: cell-based; details: Moraxella catarrhalis; 103 isolates
# [6] = system: S. aureus; assay: as above; format: cell-based; details: Staphylococcus aureus
# [7] = system: P. aeruginosa ATCC 27853; assay: Time-kill experiments in 2% porcine gastric mucin; format: cell-based; details: 2% mucin; for activity at 24 hours in time-kill curves (FIG. 2): 12.8 μg/mL fosfomycin, 3.2 μg/mL tobramycin, or both; for killing activity in time-kill curves (FIG. 2): 4×MIC: 12.8 μg/mL fosfomycin + 3.2 μg/mL tobramycin vs the components alone; for killing activity in time-kill curves (FIG. 1): 9:1 combination (fosfomycin 14.4 μg/mL + tobramycin 1.6 μg/mL) vs the components alone
# Experimental: These studies were previously reported in PCT Publication no. WO2005/110022 to Gilead Sciences, Inc. (formerly Carus Pharma). Two to three bacterial colonies were inoculated into 10 mL CAMHB and incubated at 35° C. in a shaking water bath (250 rpm) for 18-24 hours. A 1:40 dilution of the overnight culture was made in 10 mL of fresh CAMHB and incubated at 35° C. in a shaking water bath (250 rpm) for 1-2 hours. […] Ten milliliter aliquots were then pipeted into 50 mL conical tubes. […] The killing activity of fosfomycin plus tobramycin was also compared to the killing activity of the individual components. […] A no drug control was conducted in each experiment. […] Bacterial killing was determined at 0, 1, 2, 4, 6, and 24 hours by making 10-fold serial dilutions of the cultures in sterile normal saline, and spreading 100 μl aliquots on blood agar plates. […] The limit of detection for the colony counting method was 1 Log10. Time-kill curves were constructed by plotting the Log10 number of CFU/mL culture versus time.
# [8] = system: P. aeuriginosa; assay: Dose-response time-kill studies in 2% mucin; format: cell-based; details: for bactericidal or bacteriostatic / time-dependent or concentration-dependent killing: 2% mucin (FIGS. 4-6)
# [9] = Sputum drug concentrations following aerosolization of FTI; format: in vivo, human; details: for sputum concentration range for patient type and dose: both FTI doses, CF and bronchiectasis patients; for Cmax: human, sputum, inhaled
# Experimental: In order to assess the amount of drug delivered to the respiratory track, drug concentration was measured in expectorated sputum for patients with CF or bronchiectasis. The fosfomycin and tobramycin range for patient type and dose was 1751-2974 μg/g and 326-881 μg/g, respectively.
# [10] = system: S. pneumoniae; details: 8 isolates; agar dilution; cited from earlier work
# [11] = system: S. pyogenes; details: 5 isolates; broth microdilution; cited from earlier work
# [12] = system: H. influenzae; details: 16 isolates; agar dilution; cited from earlier work
# [13] = system: Klebsiella spp.; details: 22 isolates; broth microdilution; cited from earlier work
# [14] = system: M. catarrhalis; details: 5 isolates; agar dilution; cited from earlier work
# [15] = system: P. aeruginosa; details: agar dilution, cited from earlier work
# [16] = system: B. cepacia complex; details: 20 isolates; agar dilution; cited from earlier work
# [17] = system: S. aureus; details: cited from earlier work; for Range of MBC/MIC: 10 strains
# [18] = system: E. coli; details: cited from earlier work; for Range of MBC/MIC: 10 strains
# [19] = system: Klebsiella spp.; details: cited from earlier work; for Range of MBC/MIC: 5 strains
# [20] = system: H. influenzae; details: cited from earlier work; for Range of MBC/MIC: 6 strains
# [21] = system: P. aeruginosa ATCC 27853; assay: MBC/MIC, broth microdilution
# Experimental: The MBCs of fosfomycin and tobramycin alone for P. aeruginosa ATCC 27853, E. coli ATCC 25922, and S. aureus ATCC 29213 were determined by the broth microdilution method according to NCCLS standards (NCCLS, 1999). […] Bacterial strains were streaked onto blood agar plates and incubated at 35° C. for 18-24 hours. Two to three bacterial colonies from the overnight cultures were inoculated into 3 mL of sterile normal saline, vortexed briefly, and adjusted to a 0.5 McFarland standard (NCCLS, 2003). Fifty microliters of bacterial inoculum (approximately 2×10^5 CFU/mL) was pipeted into individual wells of 96-well plates containing 50 μl of CAMHB (Remel, Lenexa, Kanas) supplemented with 2-fold dilutions of antibiotics ranging in concentration from 0.125 μg/mL to 128 μg/mL. […] The contents of wells showing no growth (MIC and above) were mixed with a pipetor and duplicate 10 μl samples spread onto blood agar plates. Culture plates were incubated at 35° C. for 18-24 hours and the number of bacterial colonies on each plate enumerated manually. Rejection values were determined by NCCLS methods which considers the final inoculum size, single or double sampling, pipetting error, and the Poisson distributuion of sample responses (NCCLS, 1999). […] The MBC/MIC ratios were calculated by dividing the MBC by the MIC.
# [22] = system: P. aeruginosa C177; assay: Rat bacterial pneumonia model
# Experimental: Animals were handled according to the guidelines for the Care and use of Laboratory Animals. […] All animal protocols were approved by an IRB/Ethics Committee. Male Sprague-Dawley rats (180-200 g) were obtained from Charles River Laboratories (Hollister, Calif., USA) and acclimatized for 5 days prior to use. Animals were housed individually in ventilated cages, fed Purina Lab Diet ad libitum and allowed free access to water.
# Antibiotic efficacy was determined using a rat bacterial pneumonia model. […] Rats were anaesthetized with isoflurane, and ˜10^3 cfu of P. aeruginosa C177 in 2% agar solution were instilled into the lungs with an oral gavage needle. The inoculum was deposited at the first bifurcation and distributed throughout the lungs by inspiration. Animals were allowed to recover for 18 hr post-infection. Each experiment consisted of pre-treatment (n=5-7), saline control with isoflurane, and 100 μL of antibiotic solution or saline was instilled in the trachea using a Microsprayer™ (Penn-Century In., Philadelphia, Pa., USA). Antibiotics were administered intratracheally twice daily for 3 days.
# Animals were euthanized by intraperitoneal administration of sodium pentobarbital. The pre-treatment control group was harvested 18 hr post-infection, and the saline and treatment groups 18 hr after the last antibiotic exposure. Lungs were removed aseptically, homogenized in sterile normal saline and viable bacteria determined by the colony count method. Statistical differences between the saline control group and treatment groups were evaluated by the Mann-Whitney Rank Sum Test using GraphPad Prism® software package version 3.03 (GraphPad Software, Inc., San Diego, Calif., USA).
# [23] = system: H. influenzae; assay: MIC, agar-plate dilution (Method A)
# Experimental: (§1) The efficacy of antibiotics and antibiotic combinations against Gram-positive and Gram-negative bacteria representative of species that cause respiratory infections were evaluated in MIC assays. […] H. influenzae, M. catarrhalis, and S. aureus, were isolated from respiratory tract infections. E. coli ATCC 25922, P. aeruginosa ATCC 27853, and S. aureus ATCC 29213 were used as quality control stains.
# (§2) Method A: The MICs of fosfomycin alone, tobramycin alone, or combinations of fosfomycin plus tobramycin were determined by the agar-plate dilution method according to NCCLS guidelines (NCCLS, 2003). Bacterial strains were streaked onto Trypic Soy Agar plates (PML Microbiologicals, Wilsonville, Oreg.) containing 5% defibrinated sheep blood (hereafter referred to as blood agar plates) and incubated overnight at 35° C. Two to three bacterial colonies from the overnight cultures were inoculated into 3 mL of sterile normal saline, vortexed briefly, and adjusted to a 0.5 McFarland standard (NCCLS, 2003). The bacterial suspension was diluted 1:40 in sterile normal saline and served as the inoculum. Mueller-Hinton agar plates (hereafter referred to as MHA) were prepared by combining 16 g of agarose (Becton-Dickinson, Sparks, Md.), 22 g of Mueller-Hinton broth powder (Becton-Dickinson, Sparks, Md.), and adjusted to 1 L with distilled water. The agar was sterilized by autoclaving, cooled to 55° C., and supplemented with 25 μg/mL of glucose-6-phosphate (Sigma-Aldrich, St. Louis, Mo.). Twenty-five mL of cooled agar was aliquoted into 50 mL conical tubes and supplemented with appropriate concentrations of antibiotic to achieve concentrations ranging from 0.06 μg/mL to 512 μg/mL. After gently mixing the agar and antibiotic, the suspension was poured into sterile 100 mm petri dishes and allowed to solidify at room temperature. The antibiotic agar plates were inoculated with approximately 2×10^4 CFU/spot with a 48-point inoculator (Sigma-Aldrich, St. Louis, Mo.). The MIC was defined as the lowest concentration of antibiotic (s) that prevented visible growth after incubation for 18-20 hours at 35° C.
# [24] = system: S. aureus; assay: MIC, agar-plate dilution (Method A)
# Experimental: as §1, §2
# [25] = system: S. pneumoniae; assay: MIC, agar-plate dilution (Method A); details: Streptococcus pneumoniae
# Experimental: as §1, §2
# [26] = Penicillin resistant, 32 isolates
# [27] = Streptococcus pneumoniae, Penicillin resistant, 32 isolates
# [28] = Streptococcus pneumoniae, penicillin suscept., 39 isolates
# [29] = Streptococcus pneumoniae, penicillin suscept., 39 isolates, read-out: MIC50
# [30] = 20 mg, patients with Bronchiectasis, aerosolized 80:20 mg FTI
# [31] = 20 mg, patients with Cystic Fibrosis, aerosolized 80:20 mg FTI
# [32] = 40 mg, patients with Bronchiectasis, aerosolized 160:40 mg FTI
# [33] = 40 mg, patients with Cystic Fibrosis, aerosolized 160:40 mg FTI
smiles,measurement,setting,value
O=C(O)c1cn(C2CC2)c2cc(N3CCNCC3)c(F)cc2c1=O [ciprofloxacin],MIC50,[1],> 4 µg/mL
CN[C@H](CC(C)C)C(=O)N[C@H]1C(=O)N[C@@H](CC(N)=O)C(=O)N[C@H]2C(=O)N[C@H]3C(=O)N[C@H](C(=O)N[C@H](C(=O)O)c4cc(O)cc(O)c4-c4cc3ccc4O)[C@H](O)c3ccc(c(Cl)c3)Oc3cc2cc(c3O[C@@H]2O[C@H](CO)[C@@H](O)[C@H](O)[C@H]2O[C@H]2C[C@](C)(N)[C@H](O)[C@H](C)O2)Oc2ccc(cc2Cl)[C@H]1O [vancomycin],MIC50,[1],1 µg/mL
NC[C@H]1O[C@H](O[C@H]2[C@H](O)[C@@H](O[C@H]3O[C@H](CO)[C@@H](O)[C@H](N)[C@H]3O)[C@H](N)C[C@@H]2N)[C@H](N)C[C@@H]1O [Tobramycin],MIC50,[2],16 µg/mL
same,MIC90,[2],64 µg/mL
same,MIC50,"[3]; β-lactamase neg, 62 isolates",4 µg/mL
same,MIC90,"[3]; β-lactamase neg, 62 isolates",8 µg/mL
same,MIC50,"[3]; β-lactamase pos, 39 isolates",4 µg/mL
same,MIC90,"[3]; β-lactamase pos, 39 isolates",4 µg/mL
same,MIC50,[4]; [26],32 µg/mL
same,MIC90,[4]; [27],> 32 µg/mL
same,MIC90,[4]; [28],> 32 µg/mL
same,MIC50,[4]; [29],32 µg/mL
same,MIC50,[5],0.12 µg/mL
same,MIC90,[5],0.25 µg/mL
same,MIC50,"[6]; MRSA, 103 isolates",0.5 µg/mL
same,MIC90,"[6]; MRSA, 103 isolates",> 32 µg/mL
same,MIC50,"[6]; MSSA, 104 isolates",0.25 µg/mL
same,MIC90,"[6]; MSSA, 104 isolates",0.5 µg/mL
same,activity at 24 hours in time-kill curves (FIG. 2),[7],re-growth was observed
same,killing activity in time-kill curves (FIG. 2),[7],bacteriostatic activity
same,killing activity in time-kill curves (FIG. 1),[7],bacteriostatic killing
same,bactericidal or bacteriostatic,[8],rapidly bactericidal
same,time-dependent or concentration-dependent killing,[8],concentration-dependent killing
same,re-growth within 24 hours,[8]; 2% mucin (FIGS. 5-6),re-growth occurred within 24 hours
same,sputum concentration range for patient type and dose,[9],326 to 881 µg/g
same,Cmax,[9]; [30],326000 ng/g
same,Cmax,[9]; [31],580000 ng/g
same,Cmax,[9]; [32],587000 ng/g
same,Cmax,[9]; [33],881000 ng/g
same,MIC range,[10],16 to 64 µg/mL
same,MIC range,[11],16 to 64 µg/mL
same,MIC50,[12],1 µg/mL
same,MIC90,[12],1 µg/mL
same,MIC range,[12],0.5 to 1 µg/mL
same,MIC50,[13],0.13 µg/mL
same,MIC90,[13],16 µg/mL
same,MIC range,[14],0.5 to 1 µg/mL
same,MIC50,"[15]; CF, 100 isolates",2 µg/mL
same,MIC90,"[15]; CF, 100 isolates",16 µg/mL
same,MIC50,"[15]; non-CF, 60 isolates",1 µg/mL
same,MIC90,"[15]; non-CF, 60 isolates",128 µg/mL
same,MIC50,[16],64 µg/mL
same,MIC90,[16],512 µg/mL
same,Range of MBC/MIC,[17],1-2
same,strains against which bactericidal,[17],100%
same,Range of MBC/MIC,[18],1-4
same,strains against which bactericidal,[18],100%
same,Range of MBC/MIC,[19],1-4
same,strains against which bactericidal,[19],100%
same,Range of MBC/MIC,[20],1-2
same,strains against which bactericidal,[20],100%
same,MBC/MIC,[21],1
same,reduction in lung burden,[22]; 1 mg/kg of tobramycin alone (FIG. 11),~500 fold
same,bacterial killing in rat lung,[22]; 2.5 mg/kg intratracheally twice daily for 3 days (FIG. 11),3 Log10
same,eradication of P. aeruginosa infection,[22]; doses higher than 3 mg/kg intratracheally,complete eradication
same,bacterial killing in rat lung,[22]; doses=0.5 mg/kg intratracheally,did not result in bacterial killing
same,MIC,[23]; Haemophilus influenzae,0.5 µg/mL
same,MIC,[23]; strain COR-049,0.5 µg/mL
same,MIC,[24]; Staphylococcus aureus,64 µg/mL
same,MIC,"[24]; Staphylococcus aureus, MRSA",0.25 µg/mL
same,MIC,"[24]; Staphylococcus aureus, MSSA",0.25 µg/mL
same,MIC,"[24]; Staphylococcus aureus, strain COR-059",128 µg/mL
same,MIC,[25]; strain COR-061,64 µg/mL
same,MIC,[25]; strain COR-068,16 µg/mL
C[C@@H]1O[C@@H]1P(=O)(O)O [Fosfomycin],MIC50,[2],64 µg/mL
same,MIC90,[2],128 µg/mL
same,MIC50,"[3]; β-lactamase neg, 62 isolates",0.25 µg/mL
same,MIC90,"[3]; β-lactamase neg, 62 isolates",8 µg/mL
same,MIC50,"[3]; β-lactamase pos, 39 isolates",0.5 µg/mL
same,MIC90,"[3]; β-lactamase pos, 39 isolates",2 µg/mL
same,MIC50,[4]; [26],16 µg/mL
same,MIC90,[4]; [27],32 µg/mL
same,MIC90,[4]; [28],16 µg/mL
same,MIC50,[4]; [29],16 µg/mL
same,MIC50,[5],8 µg/mL
same,MIC90,[5],16 µg/mL
same,MIC50,"[6]; MRSA, 103 isolates",4 µg/mL
same,MIC90,"[6]; MRSA, 103 isolates",8 µg/mL
same,MIC50,"[6]; MSSA, 104 isolates",4 µg/mL
same,MIC90,"[6]; MSSA, 104 isolates",4 µg/mL
same,activity at 24 hours in time-kill curves (FIG. 2),[7],re-growth was observed
same,killing activity in time-kill curves (FIG. 2),[7],bacteriostatic activity
same,killing activity in time-kill curves (FIG. 1),[7],bacteriostatic killing
same,bactericidal or bacteriostatic,[8],bacteriostatic
same,time-dependent or concentration-dependent killing,[8],time-dependent killing
same,sputum concentration range for patient type and dose,[9],1751 to 2974 µg/g
same,Cmax,[9]; [30],1.75e+06 ng/g
same,Cmax,[9]; [31],2.07e+06 ng/g
same,Cmax,[9]; [32],1.98e+06 ng/g
same,Cmax,[9]; [33],2.97e+06 ng/g
same,MIC range,[10],8 to 32 µg/mL
same,MIC range,[11],16 to 64 µg/mL
same,MIC50,[12],0.5 µg/mL
same,MIC90,[12],2 µg/mL
same,MIC range,[12],0.25 to 4 µg/mL
same,MIC50,[13],4 µg/mL
same,MIC90,[13],16 µg/mL
same,MIC range,[13],0.5-16^ mg/L
same,MIC range,[14],4 to 16 µg/mL
same,MIC50,"[15]; CF, 100 isolates",64 µg/mL
same,MIC90,"[15]; CF, 100 isolates",512 µg/mL
same,MIC50,"[15]; non-CF, 60 isolates",32 µg/mL
same,MIC90,"[15]; non-CF, 60 isolates",128 µg/mL
same,MIC50,[16],>512 µg/mL
same,MIC90,[16],>512 µg/mL
same,Range of MBC/MIC,[17],1-8
same,strains against which bactericidal,[17],80%
same,Range of MBC/MIC,[18],1-8
same,strains against which bactericidal,[18],90%
same,Range of MBC/MIC,[19],1-4
same,strains against which bactericidal,[19],100%
same,Range of MBC/MIC,[20],1-8
same,strains against which bactericidal,[20],83%
same,MBC/MIC,[21],=8
same,reduction in cfu/lung,[22]; =10 mg/kg intratracheally (FIG. 12),not observed
same,MIC,[23]; Haemophilus influenzae,8 µg/mL
same,MIC,"[23]; Haemophilus influenzae, strain COR-049",128 µg/mL
same,MIC,[24]; Staphylococcus aureus,2 µg/mL
same,MIC,"[24]; Staphylococcus aureus, MRSA",4 µg/mL
same,MIC,"[24]; Staphylococcus aureus, MSSA",1 µg/mL
same,MIC,[24]; strain COR-060 (GISA),2 µg/mL
same,MIC,[25]; strain COR-061,32 µg/mL
same,MIC,[25]; strain COR-068,8 µg/mL
